Reference: PMC3814616, “BRAF inhibitors suppress apoptosis through off-target inhibition of JNK signaling” (eLife, 2013)

Columns and labels:
Experiment in all cases: Quantitative competitive binding assay (KINOMEscan)
[1] = target: T1, MAP3K4 (Homo sapiens, UniProt Q9Y6R4); details: for remaining binding at 0.05 µM: read-out: Percent control (50 nM); for remaining binding at 0.2 µM: read-out: Percent control (200 nM); for remaining binding at 1 µM: read-out: Percent control (1000 nM); for remaining binding at 10 µM: read-out: Percent control (10 μM)
T1 construct: purchased KINOMEscan (DiscoveRx), San Diego, CA

[2] = target: T2, HPK1 (MAP4K1) (Homo sapiens, UniProt Q92918); details: for remaining binding at 0.05 µM: read-out: Percent control (50 nM); for remaining binding at 0.2 µM: read-out: Percent control (200 nM); for remaining binding at 1 µM: read-out: Percent control (1000 nM); for remaining binding at 10 µM: read-out: Percent control (10 μM)
T2 construct: purchased KINOMEscan (DiscoveRx), San Diego, CA

[3] = target: T3, TAOK2 (Homo sapiens, UniProt Q9UL54); details: for remaining binding at 0.05 µM: read-out: Percent control (50 nM); for remaining binding at 0.2 µM: read-out: Percent control (200 nM); for remaining binding at 1 µM: read-out: Percent control (1000 nM); for remaining binding at 10 µM: read-out: Percent control (10 μM)
T3 construct: purchased KINOMEscan (DiscoveRx), San Diego, CA
T3 sequence (Q9UL54 1-1235): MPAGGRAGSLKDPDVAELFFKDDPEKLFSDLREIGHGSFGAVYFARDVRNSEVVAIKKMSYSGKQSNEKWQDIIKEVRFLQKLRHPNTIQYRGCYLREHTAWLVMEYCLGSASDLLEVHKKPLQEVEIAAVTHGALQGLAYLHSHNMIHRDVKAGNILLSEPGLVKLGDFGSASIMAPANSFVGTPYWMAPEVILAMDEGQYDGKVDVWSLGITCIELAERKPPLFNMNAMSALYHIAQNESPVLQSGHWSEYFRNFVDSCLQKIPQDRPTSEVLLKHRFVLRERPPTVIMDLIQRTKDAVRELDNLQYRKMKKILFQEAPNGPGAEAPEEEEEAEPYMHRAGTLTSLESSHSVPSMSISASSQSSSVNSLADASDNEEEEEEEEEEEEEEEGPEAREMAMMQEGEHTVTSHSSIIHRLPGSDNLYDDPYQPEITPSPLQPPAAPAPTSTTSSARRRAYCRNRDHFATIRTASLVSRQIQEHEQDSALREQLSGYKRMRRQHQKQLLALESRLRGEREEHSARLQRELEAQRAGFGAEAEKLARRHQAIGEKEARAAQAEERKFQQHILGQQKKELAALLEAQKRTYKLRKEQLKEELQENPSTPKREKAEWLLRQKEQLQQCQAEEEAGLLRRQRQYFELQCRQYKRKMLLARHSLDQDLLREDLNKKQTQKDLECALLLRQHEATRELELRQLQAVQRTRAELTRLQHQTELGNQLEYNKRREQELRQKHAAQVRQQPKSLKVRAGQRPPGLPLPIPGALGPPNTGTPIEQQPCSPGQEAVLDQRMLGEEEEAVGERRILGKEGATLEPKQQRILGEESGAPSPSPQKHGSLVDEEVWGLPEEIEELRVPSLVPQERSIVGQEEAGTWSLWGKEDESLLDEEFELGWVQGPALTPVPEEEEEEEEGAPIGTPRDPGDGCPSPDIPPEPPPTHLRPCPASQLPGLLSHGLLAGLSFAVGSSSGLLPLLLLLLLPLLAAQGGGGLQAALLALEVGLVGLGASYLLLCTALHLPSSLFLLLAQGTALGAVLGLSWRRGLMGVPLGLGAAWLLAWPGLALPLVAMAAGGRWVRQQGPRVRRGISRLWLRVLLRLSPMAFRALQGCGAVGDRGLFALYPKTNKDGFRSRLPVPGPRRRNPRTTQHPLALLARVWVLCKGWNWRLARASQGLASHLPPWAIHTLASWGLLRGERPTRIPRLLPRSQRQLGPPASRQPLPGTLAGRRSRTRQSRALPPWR

[4] = target: T4, DLK (MAP3K12) (Homo sapiens, UniProt Q12852); details: for remaining binding at 0.05 µM: read-out: Percent control (50 nM); for remaining binding at 0.2 µM: read-out: Percent control (200 nM); for remaining binding at 1 µM: read-out: Percent control (1000 nM); for remaining binding at 10 µM: read-out: Percent control (10 μM)
T4 construct: purchased KINOMEscan (DiscoveRx), San Diego, CA

[5] = target: T5, MKK7 (MAP2K7) (Homo sapiens, UniProt O14733); details: for remaining binding at 0.05 µM: read-out: Percent control (50 nM); for remaining binding at 0.2 µM: read-out: Percent control (200 nM); for remaining binding at 1 µM: read-out: Percent control (1000 nM); for remaining binding at 10 µM: read-out: Percent control (10 μM)
T5 construct: purchased KINOMEscan (DiscoveRx), San Diego, CA
T5 sequence (O14733 1-419): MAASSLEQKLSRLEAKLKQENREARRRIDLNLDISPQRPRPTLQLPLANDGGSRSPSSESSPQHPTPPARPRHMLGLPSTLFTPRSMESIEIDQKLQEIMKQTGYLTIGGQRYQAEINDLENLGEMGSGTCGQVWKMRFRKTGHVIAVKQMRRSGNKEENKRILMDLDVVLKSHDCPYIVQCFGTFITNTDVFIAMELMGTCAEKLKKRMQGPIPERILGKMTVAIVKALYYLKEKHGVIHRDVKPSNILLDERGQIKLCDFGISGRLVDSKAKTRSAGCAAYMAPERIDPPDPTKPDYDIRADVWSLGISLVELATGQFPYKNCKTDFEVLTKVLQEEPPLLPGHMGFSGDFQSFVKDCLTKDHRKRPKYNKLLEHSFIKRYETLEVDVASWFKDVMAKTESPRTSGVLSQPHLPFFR

[6] = target: T6, MAP4K5 (Homo sapiens, UniProt Q9Y4K4); details: for IC50: estimated Kd, averaged pointwise estimates, transformed Hill equation, read-out: Calculated estimate of IC50; for remaining binding at 0.05 µM: read-out: Percent control (50 nM); for remaining binding at 0.2 µM: read-out: Percent control (200 nM); for remaining binding at 1 µM: read-out: Percent control (1000 nM); for remaining binding at 10 µM: read-out: Percent control (10 μM)
T6 construct: purchased KINOMEscan (DiscoveRx), San Diego, CA

[7] = target: T7, MINK (MINK1) (Homo sapiens, UniProt Q8N4C8); details: for remaining binding at 0.05 µM: read-out: Percent control (50 nM); for remaining binding at 0.2 µM: read-out: Percent control (200 nM); for remaining binding at 1 µM: read-out: Percent control (1000 nM); for remaining binding at 10 µM: read-out: Percent control (10 μM)
T7 construct: purchased KINOMEscan (DiscoveRx), San Diego, CA

[8] = target: T8, OSR1 (OXSR1) (Homo sapiens, UniProt O95747); details: for remaining binding at 0.05 µM: read-out: Percent control (50 nM); for remaining binding at 0.2 µM: read-out: Percent control (200 nM); for remaining binding at 1 µM: read-out: Percent control (1000 nM); for remaining binding at 10 µM: read-out: Percent control (10 μM)
T8 construct: purchased KINOMEscan (DiscoveRx), San Diego, CA

[9] = estimated Kd, averaged pointwise estimates, transformed Hill equation, read-out: Calculated estimate of IC50

T8 sequence (O95747 whole entry): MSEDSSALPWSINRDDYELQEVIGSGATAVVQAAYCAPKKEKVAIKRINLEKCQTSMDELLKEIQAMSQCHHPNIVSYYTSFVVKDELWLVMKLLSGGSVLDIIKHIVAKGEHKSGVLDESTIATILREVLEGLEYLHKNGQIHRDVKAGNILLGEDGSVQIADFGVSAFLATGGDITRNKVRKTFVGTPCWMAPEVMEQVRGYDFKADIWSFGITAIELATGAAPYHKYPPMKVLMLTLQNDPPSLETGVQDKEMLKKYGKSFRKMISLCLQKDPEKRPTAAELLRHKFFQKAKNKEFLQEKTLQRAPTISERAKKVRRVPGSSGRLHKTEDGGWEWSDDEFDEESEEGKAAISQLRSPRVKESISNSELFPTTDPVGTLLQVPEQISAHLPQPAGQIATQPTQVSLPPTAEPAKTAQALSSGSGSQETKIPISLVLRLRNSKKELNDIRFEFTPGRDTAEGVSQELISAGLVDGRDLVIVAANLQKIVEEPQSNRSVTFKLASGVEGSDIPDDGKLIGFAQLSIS
T2 sequence (Q92918 whole entry): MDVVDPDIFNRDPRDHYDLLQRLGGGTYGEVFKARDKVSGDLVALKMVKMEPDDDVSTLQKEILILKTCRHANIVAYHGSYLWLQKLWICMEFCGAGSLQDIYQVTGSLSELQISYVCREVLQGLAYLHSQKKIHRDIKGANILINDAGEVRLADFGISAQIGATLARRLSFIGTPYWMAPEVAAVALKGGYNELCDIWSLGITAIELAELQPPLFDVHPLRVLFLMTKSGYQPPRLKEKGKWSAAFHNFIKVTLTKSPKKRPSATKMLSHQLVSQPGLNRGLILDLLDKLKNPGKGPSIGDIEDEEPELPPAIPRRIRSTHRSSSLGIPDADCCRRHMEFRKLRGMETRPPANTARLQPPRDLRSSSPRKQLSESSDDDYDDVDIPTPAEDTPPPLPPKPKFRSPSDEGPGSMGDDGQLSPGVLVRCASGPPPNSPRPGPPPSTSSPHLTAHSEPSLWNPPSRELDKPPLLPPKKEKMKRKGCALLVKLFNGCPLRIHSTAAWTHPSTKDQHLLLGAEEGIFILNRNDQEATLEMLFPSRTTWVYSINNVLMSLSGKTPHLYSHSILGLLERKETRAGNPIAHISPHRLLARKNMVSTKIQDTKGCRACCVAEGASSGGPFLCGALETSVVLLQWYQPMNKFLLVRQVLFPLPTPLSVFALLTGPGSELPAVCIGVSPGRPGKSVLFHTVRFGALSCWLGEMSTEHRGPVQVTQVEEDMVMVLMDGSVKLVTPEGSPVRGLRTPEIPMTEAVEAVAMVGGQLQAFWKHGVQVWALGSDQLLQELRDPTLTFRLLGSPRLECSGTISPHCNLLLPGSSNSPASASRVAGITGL
T6 sequence (Q9Y4K4 whole entry): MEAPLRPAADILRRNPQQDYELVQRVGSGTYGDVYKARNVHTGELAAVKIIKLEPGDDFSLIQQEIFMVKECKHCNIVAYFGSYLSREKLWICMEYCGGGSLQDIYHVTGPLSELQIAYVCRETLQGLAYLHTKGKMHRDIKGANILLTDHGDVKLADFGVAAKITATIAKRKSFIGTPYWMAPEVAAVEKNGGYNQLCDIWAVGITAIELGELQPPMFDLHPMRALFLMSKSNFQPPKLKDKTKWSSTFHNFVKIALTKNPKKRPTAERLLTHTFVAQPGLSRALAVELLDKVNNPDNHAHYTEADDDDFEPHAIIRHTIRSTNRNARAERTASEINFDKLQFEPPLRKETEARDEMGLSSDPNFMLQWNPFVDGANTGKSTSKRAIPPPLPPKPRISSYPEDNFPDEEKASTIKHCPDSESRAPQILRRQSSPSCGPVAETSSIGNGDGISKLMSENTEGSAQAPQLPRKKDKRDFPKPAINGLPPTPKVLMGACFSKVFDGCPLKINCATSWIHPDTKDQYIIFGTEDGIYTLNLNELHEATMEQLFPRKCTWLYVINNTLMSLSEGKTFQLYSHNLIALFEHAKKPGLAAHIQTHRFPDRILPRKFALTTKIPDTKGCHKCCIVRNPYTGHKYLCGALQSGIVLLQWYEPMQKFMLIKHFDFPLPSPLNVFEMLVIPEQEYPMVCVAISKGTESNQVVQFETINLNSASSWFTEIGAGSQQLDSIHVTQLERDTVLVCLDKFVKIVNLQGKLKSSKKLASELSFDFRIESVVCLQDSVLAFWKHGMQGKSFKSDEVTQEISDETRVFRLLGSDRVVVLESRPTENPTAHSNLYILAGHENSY
T7 sequence (Q8N4C8 whole entry): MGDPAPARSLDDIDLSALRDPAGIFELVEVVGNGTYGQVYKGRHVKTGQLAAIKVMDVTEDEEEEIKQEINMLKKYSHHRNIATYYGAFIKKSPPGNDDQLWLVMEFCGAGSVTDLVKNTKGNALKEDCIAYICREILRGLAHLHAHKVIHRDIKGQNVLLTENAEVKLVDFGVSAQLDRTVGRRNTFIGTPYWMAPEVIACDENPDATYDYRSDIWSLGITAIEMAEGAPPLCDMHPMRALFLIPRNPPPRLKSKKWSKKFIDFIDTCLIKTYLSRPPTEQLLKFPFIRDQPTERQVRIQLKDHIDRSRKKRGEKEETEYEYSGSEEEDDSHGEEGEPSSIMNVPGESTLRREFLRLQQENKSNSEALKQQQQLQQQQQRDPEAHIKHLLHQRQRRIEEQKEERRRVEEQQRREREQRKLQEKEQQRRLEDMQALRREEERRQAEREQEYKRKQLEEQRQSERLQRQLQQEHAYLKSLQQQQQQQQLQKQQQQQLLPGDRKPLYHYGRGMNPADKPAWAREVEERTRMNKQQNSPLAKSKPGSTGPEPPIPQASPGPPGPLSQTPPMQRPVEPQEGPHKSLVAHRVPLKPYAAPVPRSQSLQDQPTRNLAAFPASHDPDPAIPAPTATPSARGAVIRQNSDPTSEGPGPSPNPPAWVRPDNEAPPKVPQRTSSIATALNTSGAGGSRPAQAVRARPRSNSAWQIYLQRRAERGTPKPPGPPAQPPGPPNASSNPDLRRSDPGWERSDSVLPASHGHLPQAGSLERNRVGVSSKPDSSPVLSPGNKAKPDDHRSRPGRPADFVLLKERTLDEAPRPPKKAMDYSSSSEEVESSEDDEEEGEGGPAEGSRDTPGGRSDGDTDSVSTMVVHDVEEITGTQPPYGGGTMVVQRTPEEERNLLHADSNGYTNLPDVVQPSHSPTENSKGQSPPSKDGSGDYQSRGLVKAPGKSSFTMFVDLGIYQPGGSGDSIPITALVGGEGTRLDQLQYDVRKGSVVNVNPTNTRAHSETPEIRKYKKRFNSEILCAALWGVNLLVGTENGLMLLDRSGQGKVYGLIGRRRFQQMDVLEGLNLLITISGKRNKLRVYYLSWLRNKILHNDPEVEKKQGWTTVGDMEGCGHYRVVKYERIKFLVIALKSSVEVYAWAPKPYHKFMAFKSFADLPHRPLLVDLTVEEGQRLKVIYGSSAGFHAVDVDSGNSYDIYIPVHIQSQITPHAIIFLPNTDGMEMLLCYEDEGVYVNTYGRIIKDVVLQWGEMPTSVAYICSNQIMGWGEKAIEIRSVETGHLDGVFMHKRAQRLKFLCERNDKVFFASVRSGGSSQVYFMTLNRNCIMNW
T4 sequence (Q12852 whole entry): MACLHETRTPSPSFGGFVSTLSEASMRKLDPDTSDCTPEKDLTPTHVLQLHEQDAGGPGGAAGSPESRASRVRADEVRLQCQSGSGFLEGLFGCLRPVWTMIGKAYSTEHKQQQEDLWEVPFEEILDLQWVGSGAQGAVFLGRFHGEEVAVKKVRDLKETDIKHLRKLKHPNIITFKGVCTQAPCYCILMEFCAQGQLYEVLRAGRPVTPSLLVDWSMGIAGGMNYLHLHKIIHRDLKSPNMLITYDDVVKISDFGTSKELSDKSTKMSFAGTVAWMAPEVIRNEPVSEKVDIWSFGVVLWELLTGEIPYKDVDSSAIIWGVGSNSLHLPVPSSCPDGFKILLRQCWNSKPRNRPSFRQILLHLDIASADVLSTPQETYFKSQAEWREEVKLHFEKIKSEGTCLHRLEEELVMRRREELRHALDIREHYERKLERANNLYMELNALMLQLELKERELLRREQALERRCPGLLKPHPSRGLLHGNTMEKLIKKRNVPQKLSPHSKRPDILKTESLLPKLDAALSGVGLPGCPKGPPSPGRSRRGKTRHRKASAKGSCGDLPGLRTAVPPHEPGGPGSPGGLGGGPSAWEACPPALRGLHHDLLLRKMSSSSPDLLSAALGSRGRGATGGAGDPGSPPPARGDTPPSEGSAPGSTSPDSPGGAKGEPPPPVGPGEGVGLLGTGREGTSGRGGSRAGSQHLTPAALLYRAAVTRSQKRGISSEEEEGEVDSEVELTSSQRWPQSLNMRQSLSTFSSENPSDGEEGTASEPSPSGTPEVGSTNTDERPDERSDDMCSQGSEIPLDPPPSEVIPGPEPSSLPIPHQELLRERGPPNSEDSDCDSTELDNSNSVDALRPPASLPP

SMILES | remaining binding at 0.05 µM [1] | remaining binding at 0.2 µM [1] | remaining binding at 1 µM [1] | remaining binding at 10 µM [1] | remaining binding at 0.05 µM [2] | remaining binding at 0.2 µM [2] | remaining binding at 1 µM [2] | remaining binding at 10 µM [2] | remaining binding at 0.05 µM [3] | remaining binding at 0.2 µM [3] | remaining binding at 1 µM [3] | remaining binding at 10 µM [3] | remaining binding at 0.05 µM [4] | remaining binding at 0.2 µM [4] | remaining binding at 1 µM [4] | remaining binding at 10 µM [4] | remaining binding at 0.05 µM [5] | remaining binding at 0.2 µM [5] | remaining binding at 1 µM [5] | remaining binding at 10 µM [5] | further results
CCCS(=O)(=O)Nc1ccc(F)c(C(=O)c2c[nH]c3ncc(-c4ccc(Cl)cc4)cc23)c1F [vemurafenib] | 95% | 92% | 87% | 46% | 95% | 88% | 67% | 15% | 98% | 92% | 95% | 70% | 98% | 97% | 66% | 92% | 97% | 95% | 94% | 85% | IC50 [3, 9]: 11.8 µM; IC50 [6]: 0.0582 µM; remaining binding at 0.05 µM [6]: 62%; remaining binding at 0.2 µM [6]: 33%; remaining binding at 1 µM [6]: 4.1%; remaining binding at 10 µM [6]: 0.1%; IC50 [7, 9]: 14.8 µM; remaining binding at 0.05 µM [7]: 100%; remaining binding at 0.2 µM [7]: 100%; remaining binding at 1 µM [7]: 91%; remaining binding at 10 µM [7]: 66%; remaining binding at 0.05 µM [8]: 100%; remaining binding at 0.2 µM [8]: 100%; remaining binding at 1 µM [8]: 89%; remaining binding at 10 µM [8]: 98%
CCCS(=O)(=O)Nc1ccc(F)c(C(=O)c2c[nH]c3ncc(Cl)cc23)c1F [PLX4720] | 100% | 100% | 100% | 65% | 100% | 100% | 100% | 47% | 92% | 100% | 93% | 51% | 95% | 98% | 100% | 92% | 100% | 100% | 100% | 84% | IC50 [6]: 1.26 µM; remaining binding at 0.05 µM [6]: 96%; remaining binding at 0.2 µM [6]: 100%; remaining binding at 1 µM [6]: 63%; remaining binding at 10 µM [6]: 8%; remaining binding at 0.05 µM [7]: 89%; remaining binding at 0.2 µM [7]: 100%; remaining binding at 1 µM [7]: 98%; remaining binding at 10 µM [7]: 55%; remaining binding at 0.05 µM [8]: 100%; remaining binding at 0.2 µM [8]: 94%; remaining binding at 1 µM [8]: 95%; remaining binding at 10 µM [8]: 42%
